# Like-named read-outs stand apart in the source and are kept apart here.
# Key:
# CYP17A1_WT [1] = target: T1, CYP17A1_WT (Homo sapiens, UniProt P05093); experiment: Inhibition of PROG 17α-hydroxylation, WT CYP17A1; type: biochemical
# T1 sequence (P05093 1-508): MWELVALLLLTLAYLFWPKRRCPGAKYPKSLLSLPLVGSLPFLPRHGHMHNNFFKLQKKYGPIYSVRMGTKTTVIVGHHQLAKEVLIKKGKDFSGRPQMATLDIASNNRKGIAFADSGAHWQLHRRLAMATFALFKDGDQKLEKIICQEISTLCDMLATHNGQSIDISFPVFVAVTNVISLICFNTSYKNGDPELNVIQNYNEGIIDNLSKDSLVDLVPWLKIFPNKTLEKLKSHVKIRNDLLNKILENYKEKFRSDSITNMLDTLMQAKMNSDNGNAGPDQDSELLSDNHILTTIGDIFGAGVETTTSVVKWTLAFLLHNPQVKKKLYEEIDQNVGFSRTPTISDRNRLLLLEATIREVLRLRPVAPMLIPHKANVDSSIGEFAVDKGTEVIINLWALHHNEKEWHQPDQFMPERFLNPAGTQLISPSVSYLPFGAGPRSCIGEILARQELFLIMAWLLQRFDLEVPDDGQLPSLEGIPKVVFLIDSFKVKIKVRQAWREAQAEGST
# Method: (§1) To assess 17α-hydroxylase activity, 10 pmol of CYP17A1 along with 20 pmol purified human POR [17, 31, 32, 34, 62] […] Enzyme kinetic calculations were performed using non-linear regression curve fitting with Prism (GraphPad Software Inc., San Diego, CA, USA). Data represent the mean of three independent experiments.
# CYP17A1_WT [2] = target: T1, CYP17A1_WT; experiment: Spectral substrate/inhibitor-binding assay, WT CYP17A1; settings: 50 nM protein, 22 °C
# Method: Binding of steroid substrates to CYP17A1 was measured by recording the substrate-binding spectra in the range of 340–500 nm on a Perkin Elmer Lambda 25 spectrophotometer. A change in heme absorbance is observed when water molecules at the active site are replaced by steroid substrates. […] To accurately measure the tight binding substrates and inhibitors, a cuvette with 100 mm path length was employed and protein concentration was kept at 50 nM. […] All substrates and abiraterone were dissolved in ethanol and an equal amount of ethanol was added to the reference cuvette and the final concentration of ethanol added to the cuvettes was kept below 2%. After each addition of the compounds, cuvettes were incubated for 5 min at 22 °C before recording the spectra. […] Data were fitted with GraphPad Prism based on the tight binding pattern of substrates to a single binding site.
# CYP17A1 WT [3] = settings: 17OH-PREG as substrate, with cytochrome b5
# CYP17A1 WT [4] = tested on: T2, CYP17A1 WT; experiment: 17α-hydroxylase enzyme kinetics (PROG to 17OH-PROG), WT CYP17A1; type: biochemical, human
# T2 construct: (His)4; made in house; host or cells: E. coli JM109
# Method: as §1
compound,measurement,setting,value
"CC(=O)[C@@]1(O)CC[C@H]2[C@@H]3CC=C4C[C@@H](O)CC[C@]4(C)[C@H]3CC[C@@]21C [17OH-PREG, 17α-hydroxypregnenolone]",IC50,CYP17A1_WT [1],1700 ± 200 nM
same,Kd,CYP17A1_WT [2]; Kd,142 ± 38 nM
same,"Vmax, 17,20 Lyase 17OH-PREG to DHEA",CYP17A1 WT [3],0.025 ± 0.004 min⁻¹
same,Km,"CYP17A1 WT [3]; read-out: Km, 17,20 Lyase 17OH-PREG to DHEA",0.92 ± 0.07 µM
"C[C@]12CC[C@H](O)CC1=CC[C@@H]1[C@@H]2CC[C@]2(C)C(c3cccnc3)=CC[C@@H]12 [Abiraterone, abiraterone]",IC50,CYP17A1_WT [1],40 ± 10 nM
same,Kd,CYP17A1_WT [2]; read-out: Kd,85 ± 23 nM
"CC(=O)[C@H]1CC[C@H]2[C@@H]3CC=C4C[C@@H](O)CC[C@]4(C)[C@H]3CC[C@]12C [PREG, pregnenolone]",IC50,CYP17A1_WT [1],900 ± 150 nM
same,Kd,CYP17A1_WT [2]; read-out: Kd,62 ± 17 nM
"CC(=O)[C@H]1CC[C@H]2[C@@H]3CCC4=CC(=O)CC[C@]4(C)[C@H]3CC[C@]12C [PROG, Progesterone]","Vmax, 17α-Hydroxylase PROG to 17OH-PROG",CYP17A1 WT [4]; PROG as substrate,0.71 min⁻¹
same,Km,"CYP17A1 WT [4]; read-out: Km, 17α-Hydroxylase PROG to 17OH-PROG, PROG as substrate, CYP17A1:POR 1:2, 37 °C",6.1 ± 0.7 µM
same,"Cat Eff, 17α-Hydroxylase PROG to 17OH-PROG",CYP17A1 WT [4]; relative to WT,100%
same,Kd,CYP17A1_WT [2]; read-out: Kd,163 ± 29 nM
